Reference: PubChem BioAssay (NCI)
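Interpolation was linear, between the two tested concentrations surrounding the appropriate level; five concentrations were tested over 48 hours in 96-well plates. Definition used: TGI = concentration required for complete inhibition of growth.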

How the values were obtained:
Experiment in all cases: inhibition of tumour cell growth, NCI panel, 48 h
M14 melanoma = test system: M14 melanoma
NCI-H460 lung = test system: NCI-H460 lung
CCRF-CEM leukemia = test system: CCRF-CEM leukemia
COLO 205 colon = test system: COLO 205 colon
OVCAR-5 ovarian = test system: OVCAR-5 ovarian
A498 renal = test system: A498 renal
HOP-62 NSCLC = test system: HOP-62 NSCLC
786-0 renal = test system: 786-0 renal
SF-268 CNS = test system: SF-268 CNS
MCF7 breast = test system: MCF7 breast
SK-MEL-2 melanoma = test system: SK-MEL-2 melanoma
KM12 colon = test system: KM12 colon
MDA-MB-231 breast = test system: MDA-MB-231 breast
CAKI-1 renal = test system: CAKI-1 renal
SK-MEL-28 melanoma = test system: SK-MEL-28 melanoma
SK-OV-3 ovarian = test system: SK-OV-3 ovarian
UACC-257 melanoma = test system: UACC-257 melanoma
MOLT-4 leukemia = test system: MOLT-4 leukemia
RPMI-8226 leukemia = test system: RPMI-8226 leukemia
EKVX NSCLC = test system: EKVX NSCLC
T-47D breast = test system: T-47D breast
NCI-H23 lung = test system: NCI-H23 lung
HCC-2998 colon = test system: HCC-2998 colon
BT-549 breast = test system: BT-549 breast
OVCAR-3 ovarian = test system: OVCAR-3 ovarian
DU-145 prostate = test system: DU-145 prostate
RXF 393 renal = test system: RXF 393 renal
SNB-19 CNS = test system: SNB-19 CNS
MALME-3M melanoma = test system: MALME-3M melanoma
HCT-116 colon = test system: HCT-116 colon
U251 CNS = test system: U251 CNS
UACC-62 melanoma = test system: UACC-62 melanoma
UO-31 renal = test system: UO-31 renal
SF-539 CNS = test system: SF-539 CNS
SF-295 CNS = test system: SF-295 CNS
NCI-H226 lung = test system: NCI-H226 lung
OVCAR-4 ovarian = test system: OVCAR-4 ovarian
NCI/ADR-RES ovarian = test system: NCI/ADR-RES ovarian
HS 578T breast = test system: HS 578T breast
SN12C renal = test system: SN12C renal
MDA-MB-435 = test system: MDA-MB-435
A549 NSCLC = test system: A549 NSCLC
K-562 leukemia = test system: K-562 leukemia
PC-3 prostate = test system: PC-3 prostate
SW-620 colon = test system: SW-620 colon
SNB-75 CNS = test system: SNB-75 CNS
ACHN renal = test system: ACHN renal
HT29 colon = test system: HT29 colon
OVCAR-8 ovarian = test system: OVCAR-8 ovarian
HCT-15 colon = test system: HCT-15 colon

Measured: TGI

Cc1n[nH]c(=O)n1/N=C/c1ccco1
> 100 µM: all assays above
